From ChEMBL document CHEMBL1201862, “PubChem BioAssay data set” (2004) come the findings set out here.

Structures are written as SMILES.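 Interpolation was linear, between the two tested concentrations surrounding the appropriate level; five concentrations were tested over 48 hours in 96-well plates. Abbreviation: GI50, concentration required for 50% inhibition of growth.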 Active and inactive are the calls of the source. Rule as the data show it: active = GI50 up to about 1.1 µM and inactive = higher. Bounds are passed on as bounds.

Common to all, as to assay: growth of human tumour cells (NCI), 48 h
Test [1] has as its system NCI/ADR-RES.
Test [2] deals with HCT-116.
The subject of test [3] is U-251.
The subject of test [4] is NCI-H226.
In test [5] the test system is HL-60.
Test [6] concerns ACHN.
Test [7] relates to NCI-H23.
The subject of test [8] is SN12C.
For test [9], the system named is DMS-273.
The test system of test [10] is SK-MEL-28.
Test [11] relates to CCRF-CEM.
In test [12] the test system is M14.
Test [13] deals with HT-29.
For test [14], the system named is HCC 2998.
In test [15] the test system is SK-MEL-5.
The subject of test [16] is A549.
Test [17] concerns MDA-N.
Test [18] has as its system SNB-75.
Test [19] has as its system NCI-H460.
Test [20] has as its system DLD-1.

Regarding `Nc1cccc(-c2cc(O)c3cc4c(cc3n2)OCO4)c1`, the GI50 in test [1] is 0.581 µM (active); in [2], 0.389 µM (active); in [3] it was 1.81 µM (inactive); in [4], 1.85 µM (inactive); in test [5], 1.93 µM (inactive); in [6], 3.87 µM (inactive). The GI50 was 2.86 µM (inactive) in [7]; 4.59 µM (inactive) in test [8]; 0.889 µM (active) in [9]; 2.19 µM (inactive) in test [10]; 0.665 µM (active) in [11]; 0.993 µM (active) in [12]. The GI50 in test [13] is 1.74 µM (inactive); in test [14], 1.83 µM (inactive); in test [15], 0.427 µM (active); in test [16] it was 4.09 µM (inactive); in test [17], 0.216 µM (active); in test [18], 0.0995 µM (active). Also, in test [19], the GI50 is 4.28 µM (inactive).
Take `COC(=O)C1=C(C(=O)OC)C2(C3C(SC)=CC(C)(C)CC3S1)N(Cc1ccccc1)CCN2Cc1ccccc1` (stereo not drawn): the GI50 is > 100 µM (inactive) in test [20]; > 100 µM (inactive) in test [2]; > 100 µM (inactive) in [3]; > 100 µM (inactive) in test [4]; 48.2 µM (inactive) in test [6]; > 100 µM (inactive) in test [7]. Further, the GI50 in [8], in test [9], in test [10], in test [11], in test [12] and in test [13] was > 100 µM (inactive) each time. Also, the GI50 in [15] was 65.5 µM (inactive); in test [16], > 100 µM (inactive); in test [18], > 100 µM (inactive); in [19] it was > 100 µM (inactive).
In the case of `CCCCCCCCCCCC(=O)C1=C(O)CC(O)CC1=O` (stereo not drawn), the GI50 was > 100 µM (inactive) in [2]; 91.8 µM (inactive) in test [3]; 68.7 µM (inactive) in [4]; 23.1 µM (inactive) in test [5]; 99.8 µM (inactive) in test [6]; > 100 µM (inactive) in test [7]. In addition, the GI50 was > 100 µM (inactive) in test [8]; 84.3 µM (inactive) in test [9]; > 100 µM (inactive) in test [10]; 62.2 µM (inactive) in test [11]; > 100 µM (inactive) in test [12]; > 100 µM (inactive) in [13]. For the same compound, the GI50 is > 100 µM (inactive) in test [14]; > 100 µM (inactive) in test [15]; 59.4 µM (inactive) in test [16]; > 100 µM (inactive) in test [18]; > 100 µM (inactive) in test [19].
In the case of `O=c1cc2ccccc2nn1Cc1cccc(Cl)c1`, the GI50 was > 100 µM (inactive) in test [20]; 78.9 µM (inactive) in test [2]; > 100 µM (inactive) in [3]; 57.1 µM (inactive) in [4]; > 100 µM (inactive) in test [6]; 57.3 µM (inactive) in [7]. For the same compound, the GI50 in [8] was 97.9 µM (inactive); in test [9], 85.9 µM (inactive); in [10] it was 98.9 µM (inactive); in test [11] it was 71.1 µM (inactive); in test [12], > 100 µM (inactive); in [13], > 100 µM (inactive). Moreover, the GI50 in [14] was > 100 µM (inactive); in test [15] it was 37.8 µM (inactive); in test [16] it was 49.8 µM (inactive); in test [18] it was 32.7 µM (inactive); in [19] it was > 100 µM (inactive).
Regarding `CCOC(=O)C1C(=S)NC(=O)C1C#N` (stereo not drawn), the GI50 in test [20], in [3], in [5], in test [6], in test [7] and in [8] was > 100 µM (inactive) each time. The GI50 in [9], in test [10], in [11], in test [12], in [13] and in test [14] was > 100 µM (inactive) in each case. Further, the GI50 in [15], in test [16], in [18] and in test [19] was > 100 µM (inactive) throughout.
Regarding `COc1ccc2c3c1C(=O)CCCC3CO2` (stereo not drawn), the GI50 in test [20], in test [3], in [4], in test [5], in test [6] and in [7] was > 100 µM (inactive) throughout. Further, the GI50 in test [8], in [9], in [10], in test [11], in [12] and in test [13] was > 100 µM (inactive) in each case. Also, the GI50 in test [14], in [15], in test [16], in [18] and in [19] was > 100 µM (inactive) each time.
On to `Nc1ncnc2sc(Nc3ccccc3)nc12`, for which the GI50 in test [20] was > 100 µM (inactive); in [3], 56.6 µM (inactive); in test [4], > 100 µM (inactive); in test [5], 2.54 µM (inactive); in test [6] it was 12.3 µM (inactive); in test [7] it was 48.3 µM (inactive). The GI50 was 80.4 µM (inactive) in [8]; > 100 µM (inactive) in test [9]; > 100 µM (inactive) in [10]; 92 µM (inactive) in test [12]; 7.28 µM (inactive) in test [13]; > 100 µM (inactive) in test [14]. The GI50 in test [16] is > 100 µM (inactive); in test [18], 29.6 µM (inactive); in test [19], > 100 µM (inactive).
In the case of `Cc1ccc(S(=O)(=O)C(CC(=O)N2CCCC2)C(=O)c2ccccc2)cc1` (stereo not drawn), the GI50 in [20] is 71.1 µM (inactive); in test [2], 55.6 µM (inactive); in test [3] it was > 100 µM (inactive); in [5], 19.5 µM (inactive); in test [6], > 100 µM (inactive); in [7], > 100 µM (inactive). The GI50 in [8] was > 100 µM (inactive); in [9], 97.1 µM (inactive); in test [10], > 100 µM (inactive); in test [11], 24.6 µM (inactive); in test [12], > 100 µM (inactive); in test [13], > 100 µM (inactive). In addition, the GI50 in test [14] was > 100 µM (inactive); in test [15] it was > 100 µM (inactive); in test [16], > 100 µM (inactive); in test [18], 80.2 µM (inactive); in [19] it was > 100 µM (inactive).
`O=c1[nH]c(=O)n(C2CC(O)C(CO)O2)cc1/C=C/Br` (stereo not drawn): the GI50 in test [20], in test [3], in [4], in test [5], in test [6] and in test [7] was > 100 µM (inactive) in each case. The GI50 in test [8], in test [9], in test [10], in test [11], in test [12] and in [13] was > 100 µM (inactive) in each case. Also, the GI50 in test [15], in test [16] and in [19] was > 100 µM (inactive) throughout.
As for `O=C(c1c(O)cc(O)cc1O)C1Cc2ccccc21` (stereo not drawn), the GI50 in test [20] is > 100 µM (inactive); in test [2] it was 86.5 µM (inactive); in test [3], 47.2 µM (inactive); in test [4], > 100 µM (inactive); in test [5] it was 74 µM (inactive); in test [6] it was > 100 µM (inactive). Besides, the GI50 in [8] is > 100 µM (inactive); in test [9], 48.2 µM (inactive); in test [11] it was > 100 µM (inactive); in [12] it was > 100 µM (inactive); in test [13], > 100 µM (inactive); in test [14], > 100 µM (inactive). For the same compound, the GI50 in test [15] is > 100 µM (inactive); in test [16] it was 91.6 µM (inactive); in test [18], 13.4 µM (inactive); in test [19], 82.4 µM (inactive).
Consider `CC(C)(C)c1cc2nc(c1)C(C(F)(F)F)(C(F)(F)F)OB(Br)OC2(C(F)(F)F)C(F)(F)F`, for which the GI50 was 0.0248 µM (active) in [20]; 0.084 µM (active) in [3]; 4.47 µM (inactive) in test [7]; 0.173 µM (active) in [8]; < 0.01 µM (active) in test [9]; 4.8 µM (inactive) in test [10]. The GI50 is < 0.01 µM (active) in [11]; 0.0209 µM (active) in [12]; 0.156 µM (active) in test [13]; 0.233 µM (active) in test [14]; < 0.01 µM (active) in [16]; 3.56 µM (inactive) in test [18].
Consider `CSc1c(C)c(C)nn1-c1ccccc1`, for which the GI50 in test [20] was > 100 µM (inactive); in test [3], > 100 µM (inactive); in [5] it was 81.1 µM (inactive); in test [6], > 100 µM (inactive); in test [7] it was > 100 µM (inactive); in [8] it was > 100 µM (inactive). Moreover, the GI50 in [9], in test [10], in test [11], in test [12], in test [13] and in [14] was > 100 µM (inactive) each time. The GI50 was > 100 µM (inactive) in test [15], > 100 µM (inactive) in test [16], 58.2 µM (inactive) in test [18] and > 100 µM (inactive) in test [19].
